According to ChEMBL document CHEMBL3745672, “Novel compounds reducing IRS-1 serine phosphorylation for treatment of diabetes” (Bioorg Med Chem Lett, 2016):
Active and inactive are the calls of the source. The calls are words filed in the database; no cut-off is given here.

How the values were obtained:
[1] = system: HEK293; assay: Cytotoxicity against HEK293 after 24 hrs by CellTiter-Glo luminescent cell viability assay; assay type: cell-based; conditions: Homo sapiens, HEK293, 24 h
[2] = molecular target: T1, Mitogen-activated protein kinase 8 (Homo sapiens, UniProt P45983); assay: Inhibition of JNK1 (unknown origin)
[3] = molecular target: T1, Mitogen-activated protein kinase 8; assay: Inhibition of JNK1 (unknown origin) expressed in HEK293 cells assessed as anisomycin-induced IRS-1(Ser307) phosphorylation at 10 uM incubated for 30 mins by Western blot analysis relative to anisomycin; assay type: cell-based; design: scale not given: the % may be the effect or the level left
[4] = molecular target: T1, Mitogen-activated protein kinase 8; assay: Inhibition of JNK1 (unknown origin) expressed in HEK293 cells assessed as anisomycin-induced c-Jun phosphorylation at 10 uM incubated for 30 mins by Western blot analysis relative to anisomycin; assay type: cell-based; design: scale not given: the % may be the effect or the level left
[5] = molecular target: T1, Mitogen-activated protein kinase 8; assay: Inhibition of JNK1 (unknown origin) expressed in HEK293 cells assessed as anisomycin-induced JNK phosphorylation at 10 uM incubated for 30 mins by Western blot analysis relative to anisomycin; assay type: cell-based; design: scale not given: the % may be the effect or the level left
[6] = molecular target: Mitogen-activated protein kinase 8 (Rattus norvegicus) (UniProt P49185); assay: Inhibition of albumin-conjugated palmitate-induced JNK1/2 phosphorylation assessed as JNK phosphorylation level in rat RINm5F cells incubated for 8 hrs; assay type: cell-based
[7] = molecular target: Mitogen-activated protein kinase 8 (Rattus norvegicus) (UniProt P49185); assay: Inhibition of JNK1 phosphorylation in rat RINm5F cells assessed as suppression of albumin-conjugated palmitate-induced IRS-1 Ser307 phosphorylation incubated for 8 hrs; assay type: cell-based; design: concentration or dose not given beside the values; conditions: concentration not given here

T1 sequence (P45983 whole entry): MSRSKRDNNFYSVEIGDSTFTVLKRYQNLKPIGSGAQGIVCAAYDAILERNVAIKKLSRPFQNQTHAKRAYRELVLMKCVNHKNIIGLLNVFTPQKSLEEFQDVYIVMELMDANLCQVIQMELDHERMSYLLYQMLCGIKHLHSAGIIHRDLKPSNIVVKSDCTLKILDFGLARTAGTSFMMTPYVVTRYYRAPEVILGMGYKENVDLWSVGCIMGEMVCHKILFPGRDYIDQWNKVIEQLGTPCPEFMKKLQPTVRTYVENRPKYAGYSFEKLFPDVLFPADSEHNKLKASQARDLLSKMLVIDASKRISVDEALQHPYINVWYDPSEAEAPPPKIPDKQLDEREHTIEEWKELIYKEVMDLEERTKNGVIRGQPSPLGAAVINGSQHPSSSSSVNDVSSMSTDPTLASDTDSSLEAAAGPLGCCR
Chain of Mitogen-activated protein kinase 8 (Rattus norvegicus) (P49185 whole entry): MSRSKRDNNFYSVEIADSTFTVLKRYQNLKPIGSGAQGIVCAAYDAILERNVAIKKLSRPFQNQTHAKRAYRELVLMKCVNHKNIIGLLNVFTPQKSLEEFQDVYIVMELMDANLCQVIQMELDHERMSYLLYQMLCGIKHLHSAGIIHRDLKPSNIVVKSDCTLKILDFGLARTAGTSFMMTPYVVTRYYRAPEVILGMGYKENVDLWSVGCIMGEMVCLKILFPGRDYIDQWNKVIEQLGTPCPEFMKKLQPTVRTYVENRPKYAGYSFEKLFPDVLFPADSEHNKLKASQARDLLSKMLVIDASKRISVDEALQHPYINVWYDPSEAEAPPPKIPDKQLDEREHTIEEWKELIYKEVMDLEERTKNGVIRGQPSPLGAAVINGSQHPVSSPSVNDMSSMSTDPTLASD

| Structure (SMILES) | IC50 [2] | Activity [3] | Activity [4] | Activity [5] | inhibition ([6]; concentration not given here) | inhibition [7] | inhibition [6] | IC50 [1] |
| --- | --- | --- | --- | --- | --- | --- | --- | --- |
| O=C(O)c1ccccc1Nc1ccnc(Nc2cccc(F)c2)n1 | 0.05 µM | 69% | 46% |  |  |  |  | > 30 µM |
| Cn1c(=O)c(Oc2c(Cl)cccc2Cl)cc2cnc(Nc3ccc(N4CCCCC4)cc3)nc21 | > 23 µM | 46.3% | 108% | 129% |  |  |  | > 30 µM |
| Cn1c(=O)c(Oc2c(Cl)cccc2Cl)cc2cnc(N3CCCCC3CO)nc21 (stereo not given) | > 23 µM | 110% | 118% | 110% |  |  |  | > 30 µM |
| Cn1c(=O)c(Oc2ccc(F)cc2F)cc2cnc(NCc3cccc(C(F)(F)F)c3)nc21 | > 23 µM | 0% | 101% | 94.1% |  |  |  | > 30 µM |
| CC(C)Nc1ncc2cc(Oc3ccc(F)cc3F)c(=O)n(C)c2n1 | 4.22 µM | 15% | 81% |  |  |  |  | > 30 µM |
| Cn1c(=O)c(Oc2ccc(F)cc2F)cc2cnc(NCCNS(C)(=O)=O)nc21 | 18.9 µM | 12.2% | 67.5% | 75.8% |  |  |  | > 30 µM |
| Cn1c(=O)c(Oc2c(Cl)cccc2Cl)cc2cnc(N3CCC(O)CC3)nc21 | > 23 µM | 40.5% | 99.1% | 96.3% |  |  |  | > 30 µM |
| Cn1c(=O)c(Oc2c(Cl)cccc2Cl)cc2cnc(N3CCCC(O)C3)nc21 (stereo not given) | > 23 µM | 93.6% | 133% | 36.2% |  |  |  | > 30 µM |
| CCOC(=O)N1CCC(Nc2ncc3cc(Oc4ccc(F)cc4F)c(=O)n(C)c3n2)CC1 | 2.75 µM | 0% | 42% |  |  |  |  | > 30 µM |
| Cn1c(=O)c(Oc2c(Cl)cccc2Cl)cc2cnc(N3CCCC(CO)C3)nc21 (stereo not given) | > 23 µM | 99.3% | 103% | 99.3% |  |  |  | > 30 µM |
| Cn1c(=O)c(Oc2c(Cl)cccc2Cl)cc2cnc(Nc3ccc(N4CCC(O)CC4)cc3)nc21 | > 23 µM | 9.09% | 74% | 58.9% | 54% | 58% |  | > 30 µM |
| Cn1c(=O)c(Oc2ccc(F)cc2F)cc2cnc(NCCCNS(C)(=O)=O)nc21 | 2.77 µM | 0% | 73.5% | 52.9% |  | 87% | inactive | > 30 µM |
| Cn1c(=O)c(Oc2c(Cl)cccc2Cl)cc2cnc(N3CCC(O)C3)nc21 (stereo not given) | > 23 µM | 74.5% | 82.5% | 74.5% |  |  |  | > 30 µM |
| Cn1c(=O)c(Oc2ccc(F)cc2F)cc2cnc(NC3CCCCCC3)nc21 | 6.73 µM | 0% | 119% | 84% |  |  |  | > 26.7 µM |
| Cn1c(=O)c(Oc2c(Cl)cccc2Cl)cc2cnc(NC3CC3)nc21 | 14.9 µM | 14.7% | 128% | 96.1% |  |  |  | > 30 µM |
| Cn1c(=O)c(Oc2ccc(F)cc2F)cc2cnc(N3CCC(O)C3)nc21 (stereo not given) | > 23 µM | 51.1% | 111% | 131% |  |  |  | > 30 µM |
| Cn1c(=O)c(Oc2ccc(F)cc2F)cc2cnc(N3CCCC(CO)C3)nc21 (stereo not given) | > 23 µM | 79.4% | 103% | 21.1% |  |  |  | > 30 µM |
| Cn1c(=O)c(Oc2ccc(F)cc2F)cc2cnc(N3CCC(CO)CC3)nc21 | > 23 µM | 102% | 121% | 91.6% |  |  |  | > 30 µM |
| Cn1c(=O)c(Oc2c(Cl)cccc2Cl)cc2cnc(NCc3ccccn3)nc21 | > 23 µM | 2.15% | 115% | 35.3% |  |  |  | > 30 µM |

Now from value to compound, other results behind:

| IC50 [2] | Activity [3] | Activity [4] | Activity [5] | inhibition ([6]; concentration not given here) | inhibition [7] | inhibition [6] | Structure (SMILES) | IC50 [1] |
| --- | --- | --- | --- | --- | --- | --- | --- | --- |
| 27.1 µM | 71.3% | 114% | 139% |  |  |  | Cn1c(=O)c(Oc2c(Cl)cccc2Cl)cc2cnc(NCCN3CCOCC3)nc21 | > 30 µM |
| > 23 µM | 88.7% | 104% | 38.1% |  |  |  | Cn1c(=O)c(Oc2ccc(F)cc2F)cc2cnc(N3CCCC(O)C3)nc21 (stereo not given) | > 30 µM |
| > 23 µM | 26.7% | 102% | 96.1% |  |  |  | Cn1c(=O)c(Oc2ccc(F)cc2F)cc2cnc(NCCN3CCOCC3)nc21 | > 30 µM |
| 7.17 µM | 2.61% | 142% | 174% |  |  |  | Cn1c(=O)c(Oc2ccc(F)cc2F)cc2cnc(NC3CC3)nc21 | > 30 µM |
| > 23 µM | 165% | 104% | 136% |  |  |  | Cn1c(=O)c(Oc2c(Cl)cccc2Cl)cc2cnc(Nc3ccc(N4CCCC4)cc3)nc21 | > 30 µM |
| 16.1 µM | 0% | 32.4% | 37.6% | 59% | 93% |  | Cn1c(=O)c(Oc2ccc(F)cc2F)cc2cnc(NC3CCCCC3)nc21 | 14 µM |
|  | 161% | 88% |  |  |  |  | O=C(O)c1ccccc1Nc1ccnc(Nc2cccc(O)c2)n1 | > 30 µM |
| > 23 µM | 98.9% | 108% | 98.9% |  |  |  | Cn1c(=O)c(Oc2ccc(F)cc2F)cc2cnc(Nc3ccc(N4CCCC4)cc3)nc21 | > 30 µM |
| > 23 µM | 14.3% | 116% | 81.6% |  |  |  | Cn1c(=O)c(Oc2c(Cl)cccc2Cl)cc2cnc(NCCc3ccccn3)nc21 | > 30 µM |
| 0.17 µM | 97% | 104% |  |  |  |  | NC(=O)c1ccccc1Nc1ccnc(Nc2cccc(O)c2)n1 | > 30 µM |
| 5.93 µM | 0% | 66.5% | 40% |  | 61% | inactive | Cn1c(=O)c(Oc2ccc(F)cc2F)cc2cnc(NC3CCCC3)nc21 | > 30 µM |
|  | 14% | 94% |  |  |  |  | Cn1c(=O)c(Oc2ccc(F)cc2F)cc2cnc(NC(CCO)CCO)nc21 [PAMAPIMOD] | > 30 µM |
| > 23 µM | 124% | 131% | 122% |  |  |  | Cn1c(=O)c(Oc2ccc(F)cc2F)cc2cnc(N3CCC(O)CC3)nc21 | > 30 µM |
| 19.3 µM | 8.18% | 115% | 108% |  |  |  | Cn1c(=O)c(Oc2c(Cl)cccc2Cl)cc2cnc(NC3CCCC3)nc21 | > 30 µM |
| > 23 µM | 68.2% | 86.2% | 68.2% |  |  |  | Cn1c(=O)c(Oc2ccc(F)cc2F)cc2cnc(NCc3ccccn3)nc21 | > 30 µM |
| 10.9 µM | 0% | 119% | 81% |  |  |  | Cn1c(=O)c(Oc2ccc(F)cc2F)cc2cnc(NC3CCNCC3)nc21 | > 30 µM |
| > 23 µM | 127% | 149% | 119% |  |  |  | Cn1c(=O)c(Oc2c(Cl)cccc2Cl)cc2cnc(N3CCC(CO)CC3)nc21 | > 30 µM |
